Patent publication US12600704B2, “Substituted 1,2,4-triazoles and methods of use” (STINGINN LLC, priority 2019, dated 2026)

Experiments:
hTERT cells = test: ELISA of type I IFN and cytokines in hTERT cells; type: cell-based, human
Text: (§1) Example 2: Examining Agonists of STING. Compounds of the present invention were examined for its ability to activate the type I interferon (IFN) promoter, using a live cell assay. This assay comprised immortalized human fibroblasts (hTERT) that were stably transfected with the type I IFN promoter driving luciferase as well as the CMV promoter driving SEAP (hTERT-pIFNβ-Glu). The live cell assay was developed by the Barber lab and has been patented. The ability of the small molecules to activate the type I IFN promoter and the transcription of luciferase, but not SEAP was assessed. This is since the activation of STING, typically by CDNs, in turn activates the transcription factors NF-κB and IRF3, both of which are required to induce the transcriptional stimulation of the Type I IFN promoter, but not the CMV promoter (IRF3 and NF-κB transcription factor binding sites are not contained in the CMV promoter). Thus, activation of STING by a small molecule identified in the first screen (HTS), results in the level of luciferase increasing relative to SEAP production. […] To confirm this, Compound 28 was administered onto normal hTERT cells and the production of Type I IFN measured using ELISA (FIG. 1C). […] Thus, Compound 28 is a more robust activator of STING compared to CDNs.
Example 10: Interferon β ELISA analysis. […]

[1] = test system: type I IFN promoter (IFNβ promoter) in hTERT-pIFNβ-Glu cells; test: Live cell assay: type I IFN promoter driving luciferase (CMV promoter driving SEAP) in hTERT-pIFNβ-Glu cells; type: cell-based, human
Text: Compounds of the present invention were examined for their ability to activate the type I interferon (IFN) promoter, using a live cell assay. This assay comprised immortalized human fibroblasts (hTERT) that were stably transfected with the type I IFN promoter driving luciferase as well as the CMV promoter driving SEAP (hTERT-pIFNβ-Glu), as described in PCT Application No. PCT/US2019/025380, inventor Glen N. Barber, published as WO2019195285, which is herein incorporated by reference in its entirety and for all purposes. The ability of the small molecules to activate the type I IFN promoter and the transcription of luciferase, but not SEAP was assessed. […]
Solubility was determined using proprietary software, e.g., https://www.researchgate.net/publication/12055195_Internet_Software_for_the_Calculation_of_the_Lipophilicity_and_Aqueous_Solubility_of_Chemical_Compounds, last visited Dec. […]
Example 2: Examining Agonists of STING. […] The ability of the small molecules to activate the type I IFN promoter and the transcription of luciferase, but not SEAP was assessed. […] To confirm this, Compound 28 was administered onto normal hTERT cells and the production of Type I IFN measured using ELISA (FIG. 1C). […]

STING [2] = test: Immunofluorescence of STING trafficking and IRF3/NF-κB nuclear localization in hTERT cells; type: cell-based, human
Text: Example 2: Examining Agonists of STING. Compounds of the present invention were examined for its ability to activate the type I interferon (IFN) promoter, using a live cell assay. This assay comprised immortalized human fibroblasts (hTERT) that were stably transfected with the type I IFN promoter driving luciferase as well as the CMV promoter driving SEAP (hTERT-pIFNβ-Glu). The live cell assay was developed by the Barber lab and has been patented. The ability of the small molecules to activate the type I IFN promoter and the transcription of luciferase, but not SEAP was assessed. This is since the activation of STING, typically by CDNs, in turn activates the transcription factors NF-κB and IRF3, both of which are required to induce the transcriptional stimulation of the Type I IFN promoter, but not the CMV promoter (IRF3 and NF-κB transcription factor binding sites are not contained in the CMV promoter). […] To confirm this, Compound 28 was administered onto normal hTERT cells and the production of Type I IFN measured using ELISA (FIG. 1C). […]
Example 11: Immunofluorescence microscopy. […] Immunostaining was performed with rabbit-anti-STING polyclonal, rabbit-anti-IRF3 (Santa Cruz Biotechnology) or rabbit-anti-p65 (Cell Signaling) followed by fluorescence conjugated secondary antibodies (FITC-goat-anti-rabbit) (Invitrogen). […]

STING [3] = test: Type I IFN production in hTERT cells lacking STING (RNAi); type: cell-based, human; conditions: STING RNAi vs control RNAi
Text: as §1

[4] = molecular target: T1, STING (amino acids 152-379, STING152-379H) (Homo sapiens, UniProt Q86WV6); test: Thermal shift assay (TSA) binding screen with purified STING152-379H
T1 construct: made in house; host or cells: E. coli BL21 DE3 RIPL Codon Plus
Text: Example 1: Identification of small molecule activators of STING. An assay was designed to identify small compounds that bound to STING. To achieve this, the carboxyl terminal region of STING (amino acids 152-379) fused to a histidine tag was expressed in bacteria as described in materials and methods. Soluble STING dimers were purified over a nickel affinity column and enriched further using gel filtration. Purified STING was used in a thermal shift assay (TSA) to isolate small molecules that bound to STING. A thermal shift assay quantifies the change in the thermal denaturation temperature of a protein. […] Once this was established, purified STING (5 μl; 1 μM) was mixed with 2.5 μl DMSO and compound (1% DMSO final with 2.5% SYPRO orange. The total reaction mixture was 10 μl in […] HEPES and 100 mM NaCl. SYPRO Orange binds nonspecifically to hydrophobic surfaces. When the protein unfolds, the exposed hydrophobic surfaces bind the dye, resulting in an increase in fluorescence by excluding water. The stability curve and its midpoint value (melting temperature, Tm also known as the temperature of hydrophobic exposure, Th) was obtained by gradually increasing the temperature to unfold the protein and measuring the fluorescence at each point. Curves were measured for STING only and STING+small molecule, and ΔTm was calculated. […]

[5] = test system: STING dependent TBK1 and IRF3 phosphorylation; test: Immunoblot of TBK1/IRF3 phosphorylation in hTERT cells
Procedure: Equal amounts of proteins were resolved on sodium dodecyl sulfate (SDS)-Polyacrylamide gels and then transferred to polyvinylidene fluoride (PVDF) membranes (Millipore). After blocking with 5% Blocking Reagent, membranes were incubated with various primary antibodies (and appropriate secondary antibodies). The image was resolved using an enhanced chemiluminescence system ECL (Thermo Scientific) and detected by autoradiography (Kodak).

T1 sequence (Q86WV6 with tags, fused parts or gaps): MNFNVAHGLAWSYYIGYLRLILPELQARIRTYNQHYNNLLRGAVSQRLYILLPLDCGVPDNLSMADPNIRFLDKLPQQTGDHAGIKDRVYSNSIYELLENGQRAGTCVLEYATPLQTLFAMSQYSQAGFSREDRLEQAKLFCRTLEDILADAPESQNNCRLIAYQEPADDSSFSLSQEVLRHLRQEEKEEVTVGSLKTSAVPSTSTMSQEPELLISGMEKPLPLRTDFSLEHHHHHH

Compound | Production of type I IFN (hTERT cells; human fibroblasts (hTERT)) | Activation of the type I IFN promoter (luciferase but not SEAP) [1] | fold induction at 50 µM ([1]; Homo sapiens, 50 μM, 0.5% DMSO, luciferase, approx. 24 h (FIGS. 2A-C) or approx. 12 h (FIGS. 3A-B), read-out: Activity (Fold changes of IFNβ promoter activity at 50 μM)) | Production of cytokines IL6, IL8 and MCP-1 (hTERT cells; hTERT cells) | STING trafficking and IRF3/NF-κB activation and nuclear localization (STING [2]) | Duration of STING activation (STING [2]; STING trafficking, nuclear localization of NF-κB and IRF3) | Type I IFN production in hTERT cells lacking STING (STING [3]) | Binding to STING [4] | Activation/phosphorylation of TBK1 (and IRF3) [5]
2-((5-(4-ethylphenyl)-4H-1,2,4-triazol-3-yl)thio)-1-phenylpropan-1-one [Compound 28] | induce the production of type I IFN and other cytokines |  |  |  |  |  |  |  | 
CCc1ccc(-c2nnc(SC(C)C(=O)c3ccccc3)[nH]2)cc1 (stereo not drawn) [Compound 28, 2-((5-(4-ethylphenyl)-4H-1,2,4-triazol-3-yl)thio)-1-phenylpropan-1-one] |  | exhibited the ability to activate the type I IFN promoter in hTERT-pIFNβ-Glu and induce the expression of luciferase but not SEAP | 8 | the production of cytokines IL6, IL8 and MCP-1 | induces STING trafficking and IRF3/NF-κB activation and nuclear localization in hTERT cells | over 24 hours | unable to produce type I IFN | can bind to and specifically activate STING signaling | able to activate TBK-1
